The values below are quoted from earlier work in US6071534A, “Multivesicular liposomes with controlled release of active agents encapsulated in the presence of a hydrochloride” (priority 1998, dated 2000).

Each structure is given as a SMILES string.

For the data set the following is noted: after IP, IV, IT, IA, IM or SC dose.

Consider `Nc1ccn([C@@H]2O[C@H](CO)[C@@H](O)[C@@H]2O)c(=O)n1` [cytarabine, cytosine arabinoside], for which the half-life entry was “very short”.
